# According to patent US11912703B2, “6-azaindole compounds” (BRISTOL-MYERS SQUIBB COMPANY, priority 2017, dated 2024):
# pIC50: −log10 of the molar value. Like-named read-outs stand apart in the source and are kept apart here.
# Legend:
# human TLR7 = human TLR7 (Homo sapiens (Human), UniProt Q9NYK1); experiment: TLR7 inhibition reporter assay (HEK-Blue SEAP); type: cell-based; settings: HEK-Blue cells overexpressing human TLR7, gardiquimod 7.5 μM stimulation
# human TLR8 = human TLR8 (Homo sapiens (Human), UniProt Q9NR97); experiment: TLR8 inhibition reporter assay (HEK-Blue SEAP);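 further: SEAP driven by IFN-β minimal promoter with five NF-κB and AP-1 sites, compounds tested 0.05 nM to 50 µM, 22 h incubation, inhibition relative to agonist plus DMSO wells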
# human TLR9 = human TLR9 (Homo sapiens (Human), UniProt Q9NR96); experiment: TLR9 inhibition reporter assay (HEK-Blue SEAP);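 further: SEAP driven by IFN-β minimal promoter carrying five NF-κB and AP-1 sites, 22 h at 37 °C, compounds 0.05 nM–50 µM, inhibition scaled between agonist-plus-DMSO and reference-inhibitor wells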
# [1] = read-out: TLR8 IC50; HEK-Blue cells overexpressing human TLR8, R848 15.9 μM stimulation, SEAP reporter
# [2] = read-out: TLR9 IC50; HEK-Blue cells overexpressing human TLR9, ODN2006 5 nM stimulation, SEAP reporter
# [3] = read-out: TLR8 IC50; HEK-Blue cells overexpressing human TLR8; R848 15.9 μM stimulation; SEAP reporter
# [4] = read-out: TLR9 IC50; HEK-Blue cells overexpressing human TLR9; ODN2006 5 nM stimulation; SEAP reporter
# Chain of human TLR8 (Q9NR97 27-1041): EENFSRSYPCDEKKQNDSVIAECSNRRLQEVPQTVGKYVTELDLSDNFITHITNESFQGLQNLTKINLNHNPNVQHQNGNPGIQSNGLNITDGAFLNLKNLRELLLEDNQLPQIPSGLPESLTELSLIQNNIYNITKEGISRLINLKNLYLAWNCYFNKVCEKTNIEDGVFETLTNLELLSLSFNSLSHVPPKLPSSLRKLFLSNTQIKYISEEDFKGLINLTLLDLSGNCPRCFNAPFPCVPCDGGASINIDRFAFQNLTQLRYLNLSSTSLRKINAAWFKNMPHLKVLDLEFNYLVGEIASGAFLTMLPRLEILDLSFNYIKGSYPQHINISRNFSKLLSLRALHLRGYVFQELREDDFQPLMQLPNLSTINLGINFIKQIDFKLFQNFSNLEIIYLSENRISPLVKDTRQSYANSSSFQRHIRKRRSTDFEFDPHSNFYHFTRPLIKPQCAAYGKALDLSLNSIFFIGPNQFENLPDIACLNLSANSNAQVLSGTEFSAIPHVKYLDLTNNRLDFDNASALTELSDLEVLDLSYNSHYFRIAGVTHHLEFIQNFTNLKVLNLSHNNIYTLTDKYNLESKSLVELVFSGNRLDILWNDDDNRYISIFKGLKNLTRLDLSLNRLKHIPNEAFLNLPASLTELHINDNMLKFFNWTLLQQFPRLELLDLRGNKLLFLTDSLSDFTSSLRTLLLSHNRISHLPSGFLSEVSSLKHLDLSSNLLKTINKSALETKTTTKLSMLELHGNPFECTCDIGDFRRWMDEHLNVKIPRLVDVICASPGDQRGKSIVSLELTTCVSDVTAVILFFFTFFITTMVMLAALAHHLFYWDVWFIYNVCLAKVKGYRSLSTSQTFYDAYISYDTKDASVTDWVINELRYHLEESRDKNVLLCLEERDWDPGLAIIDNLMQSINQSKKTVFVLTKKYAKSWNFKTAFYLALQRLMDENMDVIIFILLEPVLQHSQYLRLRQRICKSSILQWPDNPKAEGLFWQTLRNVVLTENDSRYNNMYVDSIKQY
# Chain of human TLR9 (Q9NR96 26-1032): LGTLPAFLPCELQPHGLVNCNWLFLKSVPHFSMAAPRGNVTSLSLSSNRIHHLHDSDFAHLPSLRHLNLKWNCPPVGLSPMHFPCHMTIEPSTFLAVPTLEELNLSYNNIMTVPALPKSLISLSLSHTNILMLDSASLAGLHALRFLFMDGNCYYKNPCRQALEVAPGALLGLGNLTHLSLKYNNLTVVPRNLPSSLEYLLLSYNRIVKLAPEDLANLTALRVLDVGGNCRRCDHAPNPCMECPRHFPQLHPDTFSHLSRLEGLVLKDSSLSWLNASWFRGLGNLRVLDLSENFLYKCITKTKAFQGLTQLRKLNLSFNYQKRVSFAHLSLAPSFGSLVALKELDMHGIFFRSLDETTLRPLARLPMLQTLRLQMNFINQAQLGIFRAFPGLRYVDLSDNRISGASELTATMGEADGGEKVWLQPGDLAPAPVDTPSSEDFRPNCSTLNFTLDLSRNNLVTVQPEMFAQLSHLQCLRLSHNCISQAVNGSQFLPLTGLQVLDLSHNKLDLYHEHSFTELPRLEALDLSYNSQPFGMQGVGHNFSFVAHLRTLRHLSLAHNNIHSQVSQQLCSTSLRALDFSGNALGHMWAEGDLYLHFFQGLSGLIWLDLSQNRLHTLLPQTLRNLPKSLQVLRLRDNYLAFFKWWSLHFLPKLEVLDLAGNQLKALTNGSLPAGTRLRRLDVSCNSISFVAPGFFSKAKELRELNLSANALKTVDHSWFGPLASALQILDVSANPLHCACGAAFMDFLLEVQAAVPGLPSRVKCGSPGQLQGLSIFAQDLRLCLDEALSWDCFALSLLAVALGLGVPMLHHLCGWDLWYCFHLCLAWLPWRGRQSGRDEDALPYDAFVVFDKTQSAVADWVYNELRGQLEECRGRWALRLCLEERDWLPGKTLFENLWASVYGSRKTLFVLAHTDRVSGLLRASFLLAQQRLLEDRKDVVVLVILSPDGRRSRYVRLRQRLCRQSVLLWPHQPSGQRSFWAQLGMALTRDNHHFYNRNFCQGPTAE
# Chain of human TLR7 (Q9NYK1 27-1049): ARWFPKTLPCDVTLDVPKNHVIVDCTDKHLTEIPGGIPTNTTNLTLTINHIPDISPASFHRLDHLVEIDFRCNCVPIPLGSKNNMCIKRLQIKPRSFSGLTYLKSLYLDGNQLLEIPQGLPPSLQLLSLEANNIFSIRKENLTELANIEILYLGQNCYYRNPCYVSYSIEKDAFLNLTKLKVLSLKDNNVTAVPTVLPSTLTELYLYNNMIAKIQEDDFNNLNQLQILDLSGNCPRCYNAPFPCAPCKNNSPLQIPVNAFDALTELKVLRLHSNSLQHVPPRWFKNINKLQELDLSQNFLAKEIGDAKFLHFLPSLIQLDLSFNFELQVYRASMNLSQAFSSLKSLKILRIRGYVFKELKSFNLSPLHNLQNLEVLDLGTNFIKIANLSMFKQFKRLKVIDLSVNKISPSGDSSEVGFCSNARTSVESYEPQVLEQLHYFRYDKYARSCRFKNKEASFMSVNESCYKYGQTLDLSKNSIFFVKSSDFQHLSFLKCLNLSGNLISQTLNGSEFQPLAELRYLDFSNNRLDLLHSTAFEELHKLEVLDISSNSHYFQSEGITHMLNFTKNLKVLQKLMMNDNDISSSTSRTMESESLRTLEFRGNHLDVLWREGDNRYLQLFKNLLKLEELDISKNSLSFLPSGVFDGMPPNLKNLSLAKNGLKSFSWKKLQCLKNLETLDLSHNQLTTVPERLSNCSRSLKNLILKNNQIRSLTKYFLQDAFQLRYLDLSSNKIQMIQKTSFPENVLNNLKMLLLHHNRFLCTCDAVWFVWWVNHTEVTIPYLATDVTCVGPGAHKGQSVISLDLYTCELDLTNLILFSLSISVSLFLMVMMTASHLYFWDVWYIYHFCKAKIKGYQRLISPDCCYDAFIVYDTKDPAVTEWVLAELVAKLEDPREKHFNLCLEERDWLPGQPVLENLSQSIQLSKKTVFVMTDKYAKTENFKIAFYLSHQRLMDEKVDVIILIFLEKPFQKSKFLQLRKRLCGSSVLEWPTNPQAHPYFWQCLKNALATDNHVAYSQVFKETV
SMILES,pIC50 (human TLR7),pIC50 (human TLR8; [1]),pIC50 (human TLR9; [2]),pIC50 (human TLR8; [3]),pIC50 (human TLR9; [4])
Cc1c(-c2[nH]c3cnc(C4CCC(NCC(C)(C)C)CC4)cc3c2C(C)C)cn2ncnc2c1C (centres unmarked) [Example 337],8.41,8.40,6.11,,
CCN(C)C1CCN(c2ncc3[nH]c(-c4cc(C)c5ncnn5c4)c(C(C)C)c3c2C)CC1 [Example 235],9.62,9.00,5.66,9.00,5.66
COCCN1CCN(c2ncc3[nH]c(-c4cc(OC)c5ncnn5c4)c(C(C)C)c3c2F)CC1 [Example 361],8.42,9.12,5.31,,
CNC(=O)CN(C)C1CCC(c2cc3c(C(C)C)c(-c4cc(OC)c5ncnn5c4)[nH]c3cn2)CC1 (centres unmarked) [Example 328],7.96,7.22,5.86,,
Cc1c(-c2[nH]c3cnc(C4CCC(N5CCC5)CC4)c(F)c3c2C(C)C)cn2ncnc2c1C (centres unmarked) [Example 233],8.57,,,8.44,5.94
Cc1c(-c2[nH]c3cnc(C4CCC(N5CCC5)CC4)c(F)c3c2C(C)C)cn2ncnc2c1C (centres unmarked) [Example 165],9.40,9.21,6.04,,
COc1cc(-c2[nH]c3cnc(N4CC5(CN(CC6(C)COC6)C5)C4)c(F)c3c2C(C)C)cn2ncnc12 [Example 376],8.02,< 5.51,5.22,,
"COc1cc(-c2[nH]c3cnc(C4CCNCC4)c(F)c3c2C(C)C)cn2ncnc12 [Example 3, 6-(4-fluoro-3-isopropyl-5-(piperidin-4-yl)-1H-pyrrolo[2,3-c]pyridin-2-yl)-8-methoxy-[1,2,4]triazolo[1,5-a]pyridine]",8.49,7.96,5.80,,
CCN(C)C1CCC(c2cc3c(C(C)C)c(-c4cc(OC)c5ncnn5c4)[nH]c3cn2)C1 (centres unmarked) [Example 177],8.06,8.40,6.26,,
"Cc1c(-c2[nH]c3cnc(N4CC5(CNC5)C4)c(F)c3c2C(C)C)cn2ncnc2c1C [Example 392, 6-(4-fluoro-3-isopropyl-5-(2,6-diazaspiro[3.3]heptan-2-yl)-1H-pyrrolo[2,3-c]pyridin-2-yl)-7,8-dimethyl-[1,2,4]triazolo[1,5-a]pyridine]",7.62,7.89,5.05,,
Cc1c(-c2[nH]c3cnc(C4CCC(NC[C@@H](F)C(C)(C)O)CC4)c(F)c3c2C(C)C)cn2ncnc2c1C (some centres unmarked) [Example 240],9.02,9.41,5.56,,
COc1cc(-c2[nH]c3cnc(N4CCC(N(C)CC(=O)N(C)C)CC4)c(F)c3c2C(C)C)cn2ncnc12 [Example 72],8.82,8.89,5.22,,
Cc1c(-c2[nH]c3cnc(C4CCN(CC(N)=O)CC4)c(F)c3c2C(C)C)cn2ncnc2c1C [Example 15],8.46,8.80,4.87,,
"COc1cc(-c2[nH]c3cnc(N4CCNCC4)cc3c2C(C)C)cn2ncnc12 [Example 7, 6-(3-isopropyl-5-(piperazin-1-yl)-1H-pyrrolo[2,3-c]pyridin-2-yl)-8-methoxy-[1,2,4]triazolo [1,5-a]pyridine]",8.82,9.25,6.77,,
COc1cc(-c2[nH]c3cnc(C4CCN(CCS(C)(=O)=O)CC4)c(F)c3c2C(C)C)cn2ncnc12 [Example 14],8.41,8.47,4.89,,
COc1cc(-c2[nH]c3cnc(C4CCC(N5CC6(COC6)C5)C4)cc3c2C(C)C)cn2ncnc12 (centres unmarked) [Example 208],7.92,7.80,6.56,,
COCCN1CCN(c2ncc3[nH]c(-c4cc(OC)c5ncnn5c4)c(C(C)C)c3c2C)CC1 [Example 126],8.09,8.49,5.60,,
COc1cc(-c2[nH]c3cnc(C4CCC(N5CC6(COC6)C5)CC4)c(C)c3c2C(C)C)cn2ncnc12 (centres unmarked) [Example 245],8.20,7.33,6.59,,
COc1cc(-c2[nH]c3cnc(N4CCN(CC(N)=O)C[C@H]4C)c(F)c3c2C(C)C)cn2ncnc12 [Example 447],7.96,7.49,< 4.30,,
CCN(C)C1CCC(c2cc3c(C(C)C)c(-c4cc(OC)c5ncnn5c4)[nH]c3cn2)CC1 (centres unmarked) [Example 331],6.58,6.20,5.48,,
COc1cc(-c2[nH]c3cnc(C4CCC(NC5COC5)C4)cc3c2C(C)C)cn2ncnc12 (centres unmarked) [Example 178],8.15,8.57,6.49,,
COc1cc(-c2[nH]c3cnc(C4CCC(NCC(C)(C)C)C4)cc3c2C(C)C)cn2ncnc12 (centres unmarked) [Example 144],7.85,7.85,5.90,,
Cc1cc(-c2[nH]c3cnc(C4CCN(C(=O)CN(C)C)CC4)c(F)c3c2C(C)C)cn2ncnc12 [Example 66],8.68,8.31,5.44,,
COCCN1CCC(c2ncc3[nH]c(-c4cc(C)c5ncnn5c4)c(C(C)C)c3c2F)CC1 [Example 183],8.74,8.47,5.61,,
COc1cc(-c2[nH]c3cnc(N4CCN(CC(C)(C)O)CC4)c(F)c3c2C(C)C)cn2ncnc12 [Example 364],8.57,9.42,5.06,,
Cc1c(-c2[nH]c3cnc(N4CCN(CC(N)=O)CC4)c(C)c3c2C(C)C)cn2ncnc2c1C [Example 414],7.39,8.21,< 4.30,,
COc1cc(-c2[nH]c3cnc(N4CCN(CC(F)(F)F)CC4)c(F)c3c2C(C)C)cn2ncnc12 [Example 366],8.42,7.41,4.79,,
Cc1cc(-c2[nH]c3cnc(N4CCC(NC5COC5)CC4)c(F)c3c2C(C)C)cn2ncnc12 [Example 255],9.30,9.31,4.84,,

# Results, then the molecule that gave them:
pIC50 (human TLR7),pIC50 (human TLR8; [1]),pIC50 (human TLR9; [2]),pIC50 (human TLR8; [3]),pIC50 (human TLR9; [4]),SMILES
8.47,,,8.36,5.12,COc1cc(-c2[nH]c3cnc(C4CCN(C5CCOCC5)CC4)c(F)c3c2C(C)C)cn2ncnc12 [Example 217]
8.40,8.64,5.44,,,CCN1CC2(C1)CN(c1ncc3[nH]c(-c4cc(OC)c5ncnn5c4)c(C(C)C)c3c1F)C2 [Example 379]
8.32,7.77,6.12,,,CCN(C)C1CCC(c2ncc3[nH]c(-c4cc(OC)c5ncnn5c4)c(C(C)C)c3c2C)CC1 (centres unmarked) [Example 268]
7.05,7.32,< 4.30,,,Cc1c(-c2[nH]c3cnc(N4CC5(CN(CC(F)(F)F)C5)C4)c(F)c3c2C(C)C)cn2ncnc2c1C [Example 434]
6.80,7.28,< 4.30,,,"COc1cc(-c2[nH]c3cnc(N4CC5(CN(C(=O)CN6CCOCC6)C5)C4)c(F)c3c2C(C)C)cn2ncnc12 [Example 367, 1-(6-(4-fluoro-3-isopropyl-2-(8-methoxy-[1,2,4]triazolo[1,5-a]pyridin-6-yl)-1H-pyrrolo[2,3-c]pyridin-5-yl)-2,6-diazaspiro[3.3]heptan-2-yl)-2-morpholinoethan-1-one]"
7.72,6.76,4.99,,,COc1cc(-c2[nH]c3cnc(N4CC5(C4)CN(C4CCOCC4)C5)c(F)c3c2C(C)C)cn2ncnc12 [Example 370]
7.80,,,8.60,4.32,Cc1c(-c2[nH]c3cnc(N4CCN(CC(=O)N(C)C)C[C@H]4C)c(F)c3c2C(C)C)cn2ncnc2c1C [Example 466]
7.44,6.80,< 4.30,,,Cc1cc(-c2[nH]c3cnc(C4CCN(CC(F)(F)F)CC4)c(F)c3c2C(C)C)cn2ncnc12 [Example 41]
8.54,8.82,4.64,,,COc1cc(-c2[nH]c3cnc(N4CCN(CC(=O)N(C)C)CC4)c(F)c3c2C(C)C)cn2ncnc12 [Example 360]
7.74,7.43,5.55,,,COc1cc(-c2[nH]c3cnc(C4CCC(NC5COC5)C4)cc3c2C(C)C)cn2ncnc12 (centres unmarked) [Example 93]
9.02,9.26,5.49,,,COc1cc(-c2[nH]c3cnc(N4CCN(C(C)C)CC4)c(F)c3c2C(C)C)cn2ncnc12 [Example 384]
9.10,9.59,5.19,,,COc1cc(-c2[nH]c3cnc(N4CCC(NCC(C)(C)O)CC4)c(F)c3c2C(C)C)cn2ncnc12 [Example 156]
9.38,9.29,5.83,,,COc1cc(-c2[nH]c3cnc(N4CCN(CC#N)CC4)c(F)c3c2C(C)C)cn2ncnc12 [Example 365]
7.52,8.36,5.22,,,Cc1c(-c2[nH]c3cnc(N4CC5(CN(CC(C)C)C5)C4)c(F)c3c2C(C)C)cn2ncnc2c1C [Example 402]
9.21,9.55,6.49,,,Cc1c(-c2[nH]c3cnc(N4CCC(NCC(C)(C)O)CC4)c(C)c3c2C(C)C)cn2ncnc2c1C [Example 88]
8.00,7.96,5.08,,,CNC(=O)CN1CCN(c2ncc3[nH]c(-c4cc(OC)c5ncnn5c4)c(C(C)C)c3c2C)CC1 [Example 40]
8.17,9.54,5.24,,,Cc1c(-c2[nH]c3cnc(N4CCN(C(C)C)CC4)c(F)c3c2C(C)C)cn2ncnc2c1C [Example 412]
7.60,8.77,5.03,,,Cc1c(-c2[nH]c3cnc(N4CC5(C4)CN(C(C)C)C5)c(F)c3c2C(C)C)cn2ncnc2c1C [Example 403]
